Data set [1] has as its system rats. Also on record: method as in PMID 28934522, PMID 37507813. The conditions noted are these: cited from earlier work.
Data set [2] relates to rabbits. Also on record: method as in PMID 4355439. The conditions noted are these: cited from earlier work.
Details of data set [3]: method as in PMID 4337346. As to conditions: early human study; cited from earlier work.
The subject of data set [4] is male Long-Evans rats. Nature of the data set: Acute polysomnography (wireless EEG/EMG telemetry) in rats. The conditions noted are these: for NREM delta power / REM theta power: EEG power spectra; for NREM delta power: overall effect; for NREM delta power / REM theta power / body temperature / locomotor activity counts: acute IP; for NREM delta power / REM theta power / total sleep time / % NREM sleep / % REM sleep / % active wake / % quiet wake / NREM sleep onset latency / REM bout duration / REM bout number / REM sleep onset latency / cumulative total sleep time / mean duration of NREM bouts per hour / number of NREM bouts per hour / total wake time / body temperature / locomotor activity counts: zolpidem 10 mg/kg; for total sleep time: acute IP at ZT13 (dark phase) vs vehicle, n = 8; for body temperature: subcutaneous; for body temperature / locomotor activity counts: telemetry.

Data set [5] can be described thus: Pharmacokinetic analysis of CBN and metabolites in rat plasma and brain (LC-MS/MS). The class given is in vivo. The conditions noted are these: for Kp: brain and plasma, 10 mg/kg, read-out: Brain/plasma ratio. As for the experimental part: Rats received 10 mg/kg CBN IP at approximately ZT13. Rats were then anesthetized with isoflurane at selected ZT points (13, 13.5, 14, 15, 17, 19, and 21) and blood was collected by terminal cardiac puncture. Brains were harvested, snap frozen on dry ice and plasma was isolated via centrifugation at 9000 × g for 10 min at 4 °C. All tissues were stored at −80 °C until analysis. CBN and metabolite concentrations in plasma and brain samples were assayed by liquid chromatography-tandem mass spectrometry (LC–MS/MS) using a using a Shimadzu Nexera LC-30AD UHPLC system coupled to a Shimadzu SPD-20AV photodiode array detector and a Shimadzu LC–MS-8040 triple-quadrupole mass spectrometer, equipped with an electrospray ionization (ESI) source (Shimadzu Corp.; Kyoto, Japan) as described previously.
LC-MS/MS. Plasma samples (50 µL) were spiked with internal standard (12.5 µg/mL d3-THC, 5 µL) and protein precipitation was achieved by vortex-mixing with a 3x volume of ice-cold acetonitrile. The organic layer was isolated by centrifugation (6000 g for 10 min, 4 °C) and evaporated to dryness using N2 gas. Samples were reconstituted in acetonitrile (90 µL) and 0.1% ammonium formate in water (300 µL) for supported-liquid extraction (SLE) using dichloromethane and methyl tert-butyl ether Biotage Isolute SLE+ columns (Uppsala, Sweden) as previously described. Brain samples were prepared as described for plasma samples with minor modifications. Briefly, each half brain was homogenised in methanol: water (2:1, 10x, w/v) and spiked with d3-THC as an internal standard. Homogenates were centrifuged (20,000 g for 30 min, 4 °C). Supernatants were then extracted and prepared as described above.
Quantification of CBN, 11-OH-CBN and 11-COOH-CBN in plasma and brain samples was performed by comparing experimental samples to eight-point standard curves prepared with known amounts of cannabinoid. Plasma and brain concentrations at each time point were averaged and pharmacokinetic parameters were calculated by noncompartmental analysis. Elimination rate constants were determined by linear regression of the terminal component of the concentration-time curve using GraphPad Prism 8.2 (La Jolla, USA). The log-linear trapezoidal method was used to calculate the area under concentration-time curve using equations described previously.

Data set [6] concerns the target T1, human CB2 receptors (Homo sapiens, UniProt P34972).
T1 construct: expressed in transfected cells; host or cells: mouse AtT20 FlpIn cells
Nature of the data set: Membrane potential (GIRK) assay in AtT20 cells, human CB2. The data set is classed as cell-based. As to conditions: at 30 µM; normalized to 1 µM CP 55,940.

The test system of data set [7] is rat CB1 receptors. The arrangement: method as in PMID 9379442. As to conditions: adenylyl cyclase inhibition; higher potency than CBN; efficacy not reported; cited from earlier work.
The target of data set [8] is human CB1 receptors (Homo sapiens, UniProt P21554). As to the kind of experiment: cell-based. The class given is cell-based. Also on record: expressed in transfected cells; host or cells: mouse AtT20 FlpIn cells.
Chain of human CB1 receptors (P21554 whole entry): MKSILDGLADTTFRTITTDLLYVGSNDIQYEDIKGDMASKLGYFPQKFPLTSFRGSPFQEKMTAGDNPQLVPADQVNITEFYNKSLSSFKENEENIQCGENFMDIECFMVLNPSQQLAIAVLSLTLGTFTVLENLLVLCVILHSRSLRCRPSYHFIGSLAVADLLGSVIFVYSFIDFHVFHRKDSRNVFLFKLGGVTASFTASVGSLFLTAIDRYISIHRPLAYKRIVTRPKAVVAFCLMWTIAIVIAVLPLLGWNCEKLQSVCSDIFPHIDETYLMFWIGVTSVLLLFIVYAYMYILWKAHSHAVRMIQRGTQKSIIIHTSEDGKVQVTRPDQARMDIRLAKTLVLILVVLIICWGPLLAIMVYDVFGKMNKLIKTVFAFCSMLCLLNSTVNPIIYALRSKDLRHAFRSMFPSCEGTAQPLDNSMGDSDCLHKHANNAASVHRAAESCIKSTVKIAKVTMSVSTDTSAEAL
For data set [9], the system named is mice. As to conditions: cited from earlier work; for NREM: mice.
[10] abbreviates: CBN 10, 30, 100 mg/kg, 11-OH-CBN 1, 3, 10 mg/kg.
Where [11] appears, read: acute IP at ZT13 vs vehicle, CBN 10, 30, 100 mg/kg, 11-OH-CBN 1, 3, 10 mg/kg.
The mark [12] stands for this setting: ip, rat plasma after CBN 10 mg/kg, post-dose, read-out: plasma Tmax (converted).
The mark [13] stands for this setting: rat brain after CBN 10 mg/kg IP, analyte as labelled.
The mark [14] stands for this setting: rat brain after CBN 10 mg/kg IP, analyte as labelled, n = 4.
The mark [15] stands for this setting: rat plasma after CBN 10 mg/kg IP, analyte as labelled.
Where [16] appears, read: rat plasma after CBN 10 mg/kg IP, analyte as labelled, n = 4.
Where [17] appears, read: rat, ip, rat, after CBN 10 mg/kg IP, analyte as labelled.

Like-named read-outs stand apart in the source and are kept apart here.

T1 sequence (P34972 whole entry): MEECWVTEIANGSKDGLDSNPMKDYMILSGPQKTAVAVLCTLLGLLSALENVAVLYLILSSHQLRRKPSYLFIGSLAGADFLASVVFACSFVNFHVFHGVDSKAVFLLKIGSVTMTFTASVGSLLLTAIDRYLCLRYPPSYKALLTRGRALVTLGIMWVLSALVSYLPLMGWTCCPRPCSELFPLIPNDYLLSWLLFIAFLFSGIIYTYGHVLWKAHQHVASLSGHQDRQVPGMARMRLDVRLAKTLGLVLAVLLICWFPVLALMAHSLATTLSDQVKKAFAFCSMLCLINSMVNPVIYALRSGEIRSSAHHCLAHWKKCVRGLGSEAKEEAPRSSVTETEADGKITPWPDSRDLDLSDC

In the case of `CCCCCc1cc(O)c2c(c1)OC(C)(C)[C@@H]1CCC(C)=C[C@@H]21` [Δ^9-THC, Δ^9-tetrahydrocannabinol], the REM entry in data set [1] was “suppressed”. The “NREM and REM sleep” value in data set [2] is “early-phase NREM and REM suppression, followed by a later phase increase in NREM sleep”; in data set [3] it was “tended to increase NREM but suppress REM sleep”.

`Cc1ccc(-c2nc3ccc(C)cn3c2CC(=O)N(C)C)cc1` [zolpidem, reference compound]: the “NREM delta power at specific time points” value in [4] (CBN 30 mg/kg and 100 mg/kg at ZT17 and 18, zolpidem 10 mg/kg at ZT13 and 14) is on record as “increase”. Moreover, in data set [4] (setting [10]), the NREM delta power entry was “Neither CBN nor zolpidem had robust effects”, the REM theta power entry is given as “increased”, the total sleep time result was “increased” and the body temperature entry is “did not robustly effect”. Also, the locomotor activity counts entry in data set [4] (setting [10]) is given as “decreased”. Also, in data set [4] (setting [11]), the “% NREM sleep” value was “increased”, the “% REM sleep” value is listed as “did not affect”, the “% active wake” value is listed as “decreased” and the “% quiet wake” value is recorded as “did not affect”. Moreover, in data set [4] (setting [11]), the “NREM sleep onset latency” value is given as “decreased”, the REM bout duration result is “did not affect”, the REM bout number result was “did not affect” and the “REM sleep onset latency” value was “did not affect”. In data set [4] (setting [11]), the “cumulative total sleep time” value was “increased”, the “mean duration of NREM bouts per hour” value was “increased”, the “number of NREM bouts per hour” value is given as “unaffected” and the total wake time result is on record as “decreased”.

A word on the Tmax: it is the time at which the peak concentration occurs. Broadly, the Cmax is the highest concentration seen after dosing. The Emax is the greatest response seen or fitted, relative to the assay's reference. For the compound `CCCCCc1cc(O)c2c(c1)OC(C)(C)c1ccc(CO)cc1-2` [11-OH-CBN, 11-hydroxy-cannabinol], the Tmax in [5] (ip, rat brain after CBN 10 mg/kg, read-out: brain Tmax) came to 2 h. The time to peak (Tmax) in data set [5] (setting [12]) is 1 h. In addition, the half-life in [5] (ip, rat, after CBN 10 mg/kg, similar in plasma and brain, read-out: half-life in plasma and brain (converted)) was ~2 h. Besides, in data set [5] (setting [13]), the “Brain AUC∞” value is recorded as 1539 pg hour/mg brain. For the same compound, the “Brain Cmax” value in data set [5] (setting [14]) is 419 ± 37 pg/mg brain. For the same compound, the half-life in data set [5] (rat brain after CBN 10 mg/kg IP, analyte as labelled, read-out: Brain t½ (converted)) was 2.08 h. In addition, the “Brain Cmax” value in data set [5] (rat brain following systemic administration of CBN) is given as 1.3 µM. Besides, the “Plasma AUC∞” value in data set [5] (setting [15]) amounted to 493 ng·h/mL. Moreover, the Cmax in data set [5] (setting [16]) was determined as 170 ± 18 ng/mL. In addition, in data set [5] (rat plasma after CBN 10 mg/kg IP, analyte as labelled, read-out: Plasma t½ (converted)), the half-life is 2.18 h. Further, in data set [5] (rat, after CBN 10 mg/kg IP, analyte as labelled), the Brain/plasma ratio is given as ~3. Also, in data set [5] (setting [17]), the Kp came to 3.12. For the same compound, the “activity at CB2” value in data set [6] is listed as 50 ± 6%. In addition, the “potency at rat CB1 receptors” value in data set [7] is given as “low nM range”. Besides, in data set [4] (setting [10]), the NREM delta power result is “significantly increased”, the REM theta power entry is “significantly increased”, the total sleep time entry was “did not significantly increase” and the body temperature entry is “decreased”. For the same compound, the locomotor activity counts entry in data set [4] (setting [10]) is “biphasic effect”. The “delayed onset of action on % NREM sleep, time post-dosing” value in [4] (acute IP at ZT13) was 3 to 4 h. For the same compound, in data set [4] (setting [11]), the “cumulative NREM time” value is reported as “biphasic effect”, the “cumulative REM time” value is listed as “suppressed I cumulative REM at the highest dose”, the “% NREM sleep” value is given as “increased” and the “% REM sleep” value is given as “biphasically affected”. For the same compound, in data set [4] (setting [11]), the “% active wake” value was “decreased”, the “% quiet wake” value was “decreased”, the “NREM sleep onset latency” value is listed as “increased” and the REM bout duration entry is given as “did not affect”. For the same compound, in data set [4] (setting [11]), the REM bout number entry was “affected”, the “REM sleep onset latency” value was “increased”, the “cumulative total sleep time” value is reported as “biphasically influenced” and the “mean duration of NREM bouts per hour” value is “significantly decreased”. In addition, in [4] (setting [11]), the “number of NREM bouts per hour” value is listed as “increased” and the total wake time result is on record as “did not significantly reduce”. In [8] (CB1, membrane potential assay, AtT20 cells, read-out: pEC50 (converted)), the EC50 is 1000 nM. For the same compound, the Emax in data set [8] (CB1, normalized to 1 µM CP 55,940, AtT20 cells, read-out: maximal response (Emax)) was found to be 75 ± 3%. For the same compound, the “activity at CB1 receptors (in words)” value in [8] (membrane potential assay) is recorded as “modestly potent partial agonist”.

On to `O=C(Oc1ccc([N+](=O)[O-])cc1)N1CCC(C(O)(c2ccc3c(c2)OCO3)c2ccc3c(c2)OCO3)CC1` [JZL184], for which, in data set [9], the REM entry was “suppressed” and the NREM result is recorded as “increased”.

With `CCCCCCC(C)(C)c1ccc([C@H]2CCC[C@@H](O)C2)c(O)c1` [CP 47,497], the NREM entry in [9] is recorded as “increased”.

As to `O=S(=O)(F)CCCCCc1ccc(O)cc1` [AM3506], in data set [9], the REM result was “suppressed” and the NREM result was “increased”.

Turning to `CCCCCc1cc(O)c2c(c1)OC(C)(C)c1ccc(C(=O)O)cc1-2` [11-COOH-CBN, 11-carboxy-cannabinol], the half-life in [5] (ip, rat brain after CBN 10 mg/kg, read-out: brain T1/2 (converted)) was 3.48 h. Also, the Tmax in [5] (setting [12]) was 1 h. Further, the half-life in [5] (ip, rat plasma after CBN 10 mg/kg, read-out: t1/2 plasma (converted)) is 4.52 h. For the same compound, in data set [5] (setting [13]), the “Brain AUC∞” value was determined as 137 pg hour/mg brain and the “Brain t½” value worked out at 3.48 h. In addition, the “Brain Cmax” value in data set [5] (setting [14]) amounted to 28 ± 5 pg/mg brain. Also, the Tmax in data set [5] (rat brain after CBN 10 mg/kg IP, analyte as labelled, read-out: Brain tmax) is 2 h. Moreover, in [5] (setting [15]), the “Plasma AUC∞” value is 1181 ng·h/mL and the “Plasma t½” value is 4.52 h. Besides, the Cmax in data set [5] (setting [16]) came to 169 ± 38 ng/mL. Further, the Kp in data set [5] (setting [17]) came to 0.12. In addition, in data set [6], the “activity at CB2” value is listed as 41 ± 2%. Also, the “response at CB1” value in data set [8] (30 µM (highest concentration tested), normalized to 1 µM CP 55,940) is on record as 43 ± 7%. Moreover, the “activity at CB1 receptors (in words)” value in data set [8] (membrane potential assay) is on record as “minimal activity”.

(Values after article PMC11736144, “A sleepy cannabis constituent: cannabinol and its active metabolite influence sleep architecture in rats” (Neuropsychopharmacology, 2024).)
